Test results as given in patent publication US4767761A, “Ornithine derivatives and their use as methotrexate-resistant cell inhibitors” (priority 1987, dated 1988).
Where two headings read alike, the source gives them in different places.

Columns and labels:
[1] = test system: L 1210 murine leukemia cells; assay: Cytotoxicity assay against L 1210 murine leukemia cells, 48 hours; type: cell-based; conditions: for IC50: Mus musculus, read-out: L1210 cell growth inhibition IC50; for L1210 normalized relative to MTX: number in parentheses
Experimental: (§1) A cytotoxicity assay was carried out for the same group of compounds against L 1210 and L 1210/R81 murine leukemia cells cultured for 48 hours in RPMI 1640 medium containing 10% fetal bovine serum, using the procedure of Mosman, J. Immunol. Meth., Vol. 65, 55-63 (1983).

[2] = test system: L 1210/R81 murine leukemia cells; assay: Cytotoxicity assay against L 1210/R81 murine leukemia cells, 48 hours; type: cell-based; conditions: for IC50: Mus musculus, L1210 ( R81), read-out: L1210/R81 cell growth inhibition IC50; for L1210/R81 normalized relative to MTX: number in parentheses
Experimental: as §1

[3] = molecular target: T1, DHFR (Dihydrofolate Reductase) from L 1210/R81 murine leukemia cells (Mus musculus, UniProt P00375); assay: Inhibition of DHFR purified by MTX affinity chromatography from L 1210/R81 murine leukemia cells (spectrophotometric, 340 nm); type: biochemical; conditions: range of six separate experiments on different days (footnote a, Table 1)
T1 construct: endogenous in cells; host or cells: L1210/R81 murine leukemia cells
T1 sequence (P00375 1-187): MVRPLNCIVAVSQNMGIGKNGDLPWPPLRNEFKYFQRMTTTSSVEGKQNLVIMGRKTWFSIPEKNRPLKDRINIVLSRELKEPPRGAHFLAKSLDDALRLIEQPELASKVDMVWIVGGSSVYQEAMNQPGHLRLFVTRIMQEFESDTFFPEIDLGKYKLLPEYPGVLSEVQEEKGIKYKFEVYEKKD
Experimental: Inhibition of DHFR purified by MTX affinity chromatography from L 1210/R81 murine leukemia cells was determined. […] Certain of the compounds were also tested as inhibitors of partially purified FPGS from mouse liver.
IC50 concentrations (μM) were […]

CEM/MTX lymphoblasts = assay: Cell growth inhibition against human CEM/MTX lymphoblasts, 48 hours; type: cell-based; conditions: for IC50: Homo sapiens, read-out: CEM/MTX cell growth inhibition IC50; for CEM/MTX normalized relative to MTX: number in parentheses
Experimental: (§2) In addition, four of the compounds were tested against human CEM and CEM/MTX lymphoblasts cultured fcr 48 hours in Dulbecco's modified Eagle's medium containing 10% fetal bovine serum.

CEM lymphoblasts = assay: Cell growth inhibition against human CEM lymphoblasts, 48 hours; type: cell-based; conditions: for IC50: Homo sapiens, CCRF-CEM, read-out: CEM cell growth inhibition IC50; for CEM normalized relative to MTX: number in parentheses
Experimental: as §2

cell growth in culture = conditions: result in words; Rosowsky et al. (1986); cited from earlier work
[4] = test system: dihydrofolate reductase (DHFR); conditions: result in words; Rosowsky et al. (1986); cited from earlier work
[5] = test system: folylpolyglutamate synthetase (FPGS); conditions: result in words; Rosowsky et al. (1986); cited from earlier work
SCC15/R1 cells [6] = assay: Growth inhibition of MTX-resistant human squamous carcinoma cells SCC15/R1; type: cell-based; conditions: SCC-15, 336 h, continuous exposure about two weeks
[7] = test system: parental SCC15 and SCC25 cells; assay: Growth inhibition of parental SCC15 and SCC25 cells (joint statement); type: cell-based, human
SCC25 cells [8] = assay: Growth inhibition of human squamous carcinoma cells SCC25; type: cell-based; conditions: SCC-25, 336 h, continuous exposure about two weeks
SCC15 cells [9] = assay: Growth inhibition of human squamous carcinoma cells SCC15; type: cell-based; conditions: SCC-15, 336 h, continuous exposure about two weeks
SCC25/R1 cells [10] = assay: Growth inhibition of MTX-resistant human squamous carcinoma cells SCC25/R1; type: cell-based; conditions: SCC-25, 336 h, continuous exposure about two weeks
[11] = test system: L1210, L1210/R81, CEM and CEM/MTX cells; assay: Cell growth inhibition of Table 2 (joint statement); type: cell-based, murine; human; conditions: comparison with the other compounds
Experimental: as §1
In addition, four of the compounds were tested against human CEM and CEM/MTX lymphoblasts cultured fcr 48 hours in Dulbecco's modified Eagle's medium containing 10% fetal bovine serum. The IC50 (μM) values, with normalized values relative to MTX given in parentheses, are reported in the last two columns of Table 2.

SCC25/R1 cells [12] = conditions: taken from Rosowsky et al. (1985); cited from earlier work
SCC25 cells [13] = conditions: taken from Rosowsky et al. (1985); cited from earlier work
SCC15 cells [14] = conditions: taken from Rosowsky et al. (1985); cited from earlier work
mouse liver FPGS = conditions: footnote c, Table 1; see Moran et al.; cited from earlier work
SCC15/R1 cells [15] = conditions: taken from Rosowsky et al. (1985); cited from earlier work
[16] = test system: MTX-resistant SCC15/R1 and SCC25/R1 sublines; assay: Growth inhibition of MTX-resistant SCC15/R1 and SCC25/R1 sublines (joint statement); type: cell-based, human
[17] = L1210, 48 hours, RPMI 1640, 10% fetal bovine serum
[18] = 48 hours, RPMI 1640, 10% fetal bovine serum
[19] = 48 hours, Dulbecco's modified Eagle's medium, 10% fetal bovine serum

Row | SMILES | IC50 [1, 17] [nM] | L1210 normalized relative to MTX [1] | IC50 [2, 18] [nM] | L1210/R81 normalized relative to MTX [2] | IC50 (CEM/MTX lymphoblasts; [19]) [nM] | CEM/MTX normalized relative to MTX (CEM/MTX lymphoblasts) | IC50 (CEM lymphoblasts; [19]) [nM] | CEM normalized relative to MTX (CEM lymphoblasts) | IC50 ([2]; 48 h) [nM] | also measured
1 | CC(=O)NCCC[C@H](NC(=O)c1ccc(NCc2cnc3nc(N)nc(N)c3n2)cc1)C(=O)O [Compound 2] | 17 | 0.27 | 81000 | 2.5 | – | – | – | – | – | –
2 | Nc1nc(N)c2nc(CNc3ccc(C(=O)N[C@@H](CCCNC(=O)c4ccccc4)C(=O)O)cc3)cnc2n1 [Compound 4] | 0.89 | 5.2 | 17000 | 12 | 1100 | 6.0 | 6.6 | 5.0 | – | IC50 [3]: 0.56 to 1.5 nM
3 | NCCC[C@H](NC(=O)c1ccc(NCc2cnc3nc(N)nc(N)c3n2)cc1)C(=O)O [Compound 1, N^α -(4-Amino-4-deoxypteroyl)-L-ornithine] | – | – | – | – | – | – | – | – | 32000 | inhibitor of cell growth in culture (cell growth in culture): relatively inactive; inhibitor of dihydrofolate reductase [4]: potent inhibitor; IC50 ([1]; L1210, 48 h): 1300 nM; inhibitor of folylpolyglutamate synthetase [5]: potent inhibitor
4 | Nc1nc(N)c2nc(CNc3ccc(C(=O)N[C@@H](CCC(=O)O)C(=O)O)cc3)cnc2n1 [Aminopterin, reference compound] | – | – | – | – | – | – | – | – | 84000 | –
5 | Nc1nc(N)c2nc(CNc3ccc(C(=O)N[C@@H](CCCNC(=O)c4ccc(Cl)c(Cl)c4)C(=O)O)cc3)cnc2n1 [Compound 6] | 32 | 0.14 | 127000 | 1.6 | 10000 | 0.66 | 7400 | 0.0043 | – | –
6 | Nc1nc(N)c2nc(CNc3ccc(C(=O)N[C@@H](CCCNC(=O)c4ccc(Cl)cc4)C(=O)O)cc3)cnc2n1 [Compound 5] | 3.2 | 1.4 | 27000 | 7.4 | 1000 | 6.6 | 270 | 0.12 | – | –
7 | Nc1nc(N)c2nc(CNc3ccc(C(=O)N[C@@H](CCCNC(=O)c4ccccc4C(=O)O)C(=O)O)cc3)cnc2n1 [Compound 7, N^α -(4-Amino-4-deoxypteroyl)-N^67-hemi-phthaloyl-L-Ornithine] | – | – | – | – | – | – | – | – | – | IC50 (SCC15/R1 cells [6]): 4 nM; more potent than MTX against the parental SCC15 and SCC25 cells ([7]; more potent than MTX): 10- to 30 fold; IC50 (CEM/MTX lymphoblasts; 48 h): 420 nM; IC50 ([1]; L1210, 48 h): 0.75 nM; IC50 (SCC25 cells [8]): 0.96 nM; IC50 (CEM lymphoblasts; 48 h): 4.3 nM; IC50 (SCC15 cells [9]): 1.1 nM; IC50 (SCC25/R1 cells [10]): 1.3 nM; activity shown in Table 2, result in words [11]: high activity
8 | CN(Cc1cnc2nc(N)nc(N)c2n1)c1ccc(C(=O)N[C@@H](CCC(=O)O)C(=O)O)cc1 [Methotrexate] | – | – | – | – | – | – | – | – | 200000 | IC50 (SCC25/R1 cells [12]): 150 nM; IC50 (SCC25 cells [13]): 7.5 nM; IC50 (CEM/MTX lymphoblasts; 48 h): 6600 nM; IC50 (SCC15 cells [14]): 38 nM; substrate for mouse liver FPGS (mouse liver FPGS): substrates; IC50 (CEM lymphoblasts; 48 h): 32 nM; IC50 (SCC15/R1 cells [15]): 580 nM
9 | CN(Cc1cnc2nc(N)nc(N)c2n1)c1ccc(C(=O)N[C@@H](CCC(=O)OC(C)(C)C)C(=O)O)cc1 [γ-t-butyl ester of MTX, γ-tert. -butyl ester of methotrexate] | – | – | – | – | – | – | – | – | – | IC50 (SCC25/R1 cells [12]): 780 nM; less potent than MTX against the parental SCC15 and SCC25 cells ([7]; less potent than MTX): at least 10 fold; IC50 (SCC25 cells [13]): 400 nM; less potent than MTX against the MTX-resistant SCC15/R1 and SCC25/R1 sublines [16]: at least 30 fold; IC50 (SCC15 cells [14]): 600 nM; IC50 (SCC15/R1 cells [15]): 1300 nM
